Test results as given in US11249094B2, “Astrocyte traumatome and neurotrauma biomarkers” (THE REGENTS OF THE UNIVERSITY OF CALIFORNIA, priority 2015, dated 2022).

System: Trauma-released GFAP upper and lower BDPs
Experiment: GFAP breakdown products in conditioned medium of severely stretched astrocyte cultures with protease inhibitors (immunoblot)
Format: cell-based, human
Settings: 48 hour post-injury, DAKO anti-GFAP polyclonal antibody immunoblot
Experimental: Human astrocytes were isolated from 16-18 week donated fetal neocortical brain specimen, purified and then differentiated on deformable membranes (Wanner, 2012). Cell membrane wounding/compromise, mechanoporation (Barbee, 2005), was determined using Propidium iodide (PI) uptake in living cultures accompanied by nuclear shape assessment (middle picture, stained nuclei, Hoechst stained after fixation, with little pink dots, nucleoli that are PI-stained). Cell death was determined by PI uptake accompanied by condensed nuclei (pyknotic nuclei with compacted chromatin and bright Hoechst and PI stains). Significant percent of cell integrity compromise is shown 30 min post-injury (left graph) while significant cell death was present two days post-injury (bars on the right).
In order to capture the full range of signal intensity, signals from multiple exposures of immunoblots were densitometrically measured (optical densities) and scaled to match a single exposure.
Shown in FIG. 25 are two film exposures of GFAP, upper and lower breakdown products 48 hour post-injury in conditioned medium samples using the DAKO anti-GFAP polyclonal antibody. Severely stretched and unstretched cultures received either no drug, calpain inhibitor PD150606 (100 μM, “Cali”) or pan-caspase inhibitor Z-VAD FMK (8.8 μM, “Casi”). […]

| Molecule | Trauma-released GFAP upper and lower BDPs in conditioned medium (100 μM) | Trauma-released GFAP upper and lower BDPs in conditioned medium (8.8 μM) |
| --- | --- | --- |
| O=C(O)/C(S)=C/c1ccc(I)cc1 [PD150606] | reduced |  |
| Z-VAD FMK |  | reduced |
